Data: patent US20260199369A1, “COMPOUNDS FOR THE TREATMENT OF NEUROMUSCULAR DISORDERS” (NMD PHARMA A/S, priority 2022, published 2026)
Read-outs that look alike come from different tables or passages of the source.

Experiments:
[1] = target: T1, CIC-1 ion channel (Rattus norvegicus, UniProt P35524); test: Electrophysiological measurement of compound inhibition of CIC-1 in rat muscle (Gm, three micro-electrodes technique); format: cell-based; settings: Gm in fibres of whole rat soleus muscle, four increasing compound concentrations; read-out: Potency Range (EC50, inhibition of CIC-1 ion channel)
T1 construct: from tissue; host or cells: whole soleus muscle of 12-14 week old Wistar rats
T1 sequence (P35524 1-994): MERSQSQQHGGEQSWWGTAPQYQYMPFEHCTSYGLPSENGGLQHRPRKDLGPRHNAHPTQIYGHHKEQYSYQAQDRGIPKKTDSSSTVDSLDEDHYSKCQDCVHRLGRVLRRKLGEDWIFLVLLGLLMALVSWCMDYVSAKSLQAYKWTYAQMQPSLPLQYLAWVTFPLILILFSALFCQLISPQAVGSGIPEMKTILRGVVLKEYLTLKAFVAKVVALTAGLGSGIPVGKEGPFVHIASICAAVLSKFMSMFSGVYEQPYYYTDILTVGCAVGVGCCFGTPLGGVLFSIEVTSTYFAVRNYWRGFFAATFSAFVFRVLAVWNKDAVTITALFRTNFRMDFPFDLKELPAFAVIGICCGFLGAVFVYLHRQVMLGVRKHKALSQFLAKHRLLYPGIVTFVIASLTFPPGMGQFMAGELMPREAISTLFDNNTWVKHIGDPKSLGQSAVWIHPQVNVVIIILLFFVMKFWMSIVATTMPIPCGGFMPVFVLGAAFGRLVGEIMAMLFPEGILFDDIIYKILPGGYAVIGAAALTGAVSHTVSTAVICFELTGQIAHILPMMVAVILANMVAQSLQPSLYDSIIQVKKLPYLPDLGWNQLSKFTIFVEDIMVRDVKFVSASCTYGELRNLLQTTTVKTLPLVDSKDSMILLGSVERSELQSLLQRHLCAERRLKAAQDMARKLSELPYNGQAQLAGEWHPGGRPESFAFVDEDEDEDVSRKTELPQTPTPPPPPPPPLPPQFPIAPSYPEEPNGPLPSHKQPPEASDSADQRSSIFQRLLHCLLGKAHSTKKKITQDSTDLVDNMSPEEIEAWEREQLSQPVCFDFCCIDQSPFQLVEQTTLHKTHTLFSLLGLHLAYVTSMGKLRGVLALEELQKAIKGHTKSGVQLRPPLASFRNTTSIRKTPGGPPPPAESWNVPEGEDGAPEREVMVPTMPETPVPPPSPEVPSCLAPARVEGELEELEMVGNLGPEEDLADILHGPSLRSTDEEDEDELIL
Procedure: Apparent CIC-1 affinity was reported by the concentration of compound at which 50% of the compound's full inhibition of CIC-1 was observed (EC50) (see also WO2019/115777).
Experimentally, Gm was measured in individual fibres of whole rat soleus muscles using a three micro-electrodes technique described in this example and in full detail elsewhere (Riisager et al., Determination of cable parameters in skeletal muscle fibres during repetitive firing of action potentials. Journal of Physiology, 2014, 592, 4417-4429). Briefly, intact rat soleus muscles were dissected out from 12-14 week old Wistar rats and placed in an experimental chamber that was perfused with a standard Krebs Ringer solution containing 122 mM NaCl, 25 mM NaHCO3, 2.8 mM KCl, 1.2 mM KH2PO4, 1.2 mM MgSO4, 1.3 mM CaCl2), 5.0 mM D-glucose. During experiments, the solution was kept at approx. 30° C. and continuously equilibrated with a mixture of 95% O2 and 5% CO2, pH ~7.4. The experimental chamber was placed in Nikon upright microscope that was used to visualize individual muscle fibres and the three electrodes (glass pipettes filled with 2 M potassium citrate). For Gm measurements, the electrodes were inserted into the same fibre with known inter-electrode distances of 0.35-0.5 mm (V1-V2, X1) and 1.1-1.5 mm (V1-V3, X3). The membrane potential of the impaled muscle fibre was recorded by all electrodes. Two of the electrodes were furthermore used to inject 50 ms current pulses of −30 nA. […] The steady state voltage deflection at each distance was divided by the magnitude of current injected (−30 nA) and the resulting transfer resistances were plotted against inter-electrode distance and the data was fitted to a mono-exponential function from which Gm could be calculated using linear cable theory.
To establish a dose response relationship, Gm was first determined in 10 muscle fibres in the absence of compound and then at four increasing compound concentrations with Gm determinations in 5-10 fibres at each concentration. The average Gm values at each concentration were plotted against compound concentration and the data was fitted to sigmoidal function to obtain an EC50 value.

[2] = test system: isolated rat soleus muscles; test: Measurement of force in an in vitro model: recovery of contractile force of isolated rat soleus nerve-muscle preparation after tubocurarine; settings: 40 min, read-out: Point increase (%): percentage increase of initial force that was restored; for activation at 50 µM: 50 μM of test compound
Procedure: The current disclosure relates to compounds that inhibit CIC-1 ion channels and increase muscle excitability and thereby improve muscle function in clinical conditions where muscle activation is failing. Such conditions result in loss of contractile function of skeletal muscle, weakness and excessive fatigue. In this series of experiments the compounds were tested for their ability to restore contractile function of isolated rat muscle when the neuromuscular transmission had been compromised akin to neuromuscular disorders.
Experimentally, soleus muscles from 4-5 wk old rats were isolated with the motor nerve remaining attached. The nerve-muscle preparations were mounted in experimental setups that enabled electrical stimulation of the motor nerve. Stimulation of the motor nerve led to activation of the muscle fibres and ensuing force production that was recorded. The nerve-muscle preparations were also in these experiments incubated in the standard Krebs Ringer (see example 15) and the solution was heated to 30° C. and continuously equilibrated with a mixture of 95% O2 and 5% CO2, pH ~7.4.
After mounting the nerve-muscle preparation in the experimental setup, the contractile function of the muscle was initially assessed under the control conditions. Sub-maximal concentration of tubocurarine (115 nM), an acetylcholine receptor antagonist, was then added to the experimental bath to impose partial inhibition of the ability of the motor nerve to activate the muscle fibres. The experimental condition mimics the failing neuromuscular transmission in a range of neuromuscular disorders. After addition of tubocurarine the contractile force declined over the next 90 minutes to 10-50% of the control force. The test compound was then added to obtain the required compound concentration in the bath and the contractile force recovered was measured. To quantify the ability of the compound to restore force the percentage of the initial force that was restored was determined after 40 mins of compound exposure and the point increase is reported in Tables 3 to 7.

[3] = tubocurarine 115 nM, after 40 mins of compound exposure
[4] = 10 μM of test compound, tubocurarine 115 nM, after 40 mins of compound exposure
[5] = 25 μM of test compound, tubocurarine 115 nM, after 40 mins of compound exposure

COc1c(Cl)cc2c(c1C(=O)O)OCCO2 [Compound A-1, 7-Chloro-6-methoxy-2,3-dihydro-1,4-benzodioxine-5-carboxylic acid]
EC50 [1]: 5000 to 15000 nM
activation at 50 µM [2, 3]: 31%

COc1c(Cl)cc2c(c1C(=O)O)OCCN2C [Compound A-2, 6-Chloro-7-methoxy-4-methyl-3,4-dihydro-2H-1,4-benzoxazine-8-carboxylic acid]
EC50 [1]: 200 to 1000 nM
activation at 10 µM [2, 4]: 32%

CN1CCOc2cc(Cl)c(F)c(C(=O)O)c21 [Compound A-3, 7-Chloro-6-fluoro-4-methyl-3,4-dihydro-2H-1,4-benzoxazine-5-carboxylic acid]
EC50 [1]: 1000 to 5000 nM
activation at 10 µM [2]: 41%

CN1CCOc2c1cc(F)c(Cl)c2C(=O)O [Compound A-4, 7-Chloro-6-fluoro-4-methyl-3,4-dihydro-2H-1,4-benzoxazine-8-carboxylic acid]
EC50 [1]: 1000 to 5000 nM
activation at 10 µM [2, 4]: 36%

O=C(O)c1c(F)cc(Cl)c2c1OCCN2 [Compound A-5, 5-Chloro-7-fluoro-3,4-dihydro-2H-1,4-benzoxazine-8-carboxylic acid]
EC50 [1]: 5000 to 15000 nM
activation at 50 µM [2, 3]: 44%

O=C(O)c1c(F)c(Cl)cc2c1OCCN2 [Compound A-6, 6-Chloro-7-fluoro-3,4-dihydro-2H-1,4-benzoxazine-8-carboxylic acid]
EC50 [1]: 5000 to 15000 nM
activation at 10 µM [2, 4]: 19%

CN1CCOc2c1cc(Cl)c(F)c2C(=O)O [Compound A-7, 6-Chloro-7-fluoro-4-methyl-3,4-dihydro-2H-1,4-benzoxazine-8-carboxylic acid]
EC50 [1]: 200 to 1000 nM

CN1CCN(C)c2c1cc(Cl)c(F)c2C(=O)O [Compound A-8, 7-Chloro-6-fluoro-1,4-dimethyl-1,2,3,4-tetrahydroquinoxaline-5-carboxylic acid]
EC50 [1]: 1000 to 5000 nM
activation at 10 µM [2, 4]: 26%

CN1CC(C)(C)Oc2c1cc(Cl)c(F)c2C(=O)O [Compound A-9, 6-Chloro-7-fluoro-2,2,4-trimethyl-3,4-dihydro-2H-1,4-benzoxazine-8-carboxylic acid]
EC50 [1]: 1000 to 5000 nM
activation at 10 µM [2, 4]: 37%

CN1CCCOc2c1cc(Cl)c(F)c2C(=O)O [Compound A-13, 7-Chloro-8-fluoro-5-methyl-2,3,4,5-tetrahydro-1,5-benzoxazepine-9-carboxylic acid]
EC50 [1]: 1000 to 5000 nM
activation at 10 µM [2, 4]: 30%

CC(C)CCN1CCOc2c1cc(Cl)c(F)c2C(=O)O [Compound A-17, 6-chloro-7-fluoro-4-(3-methylbutyl)-3,4-dihydro-2H-1,4-benzoxazine-8-carboxylic acid]
EC50 [1]: 5000 to 15000 nM
activation at 50 µM [2, 3]: 29%

CCN1CCOc2c1cc(Cl)c(F)c2C(=O)O [Compound A-18, 6-Chloro-4-ethyl-7-fluoro-3,4-dihydro-2H-1,4-benzoxazine-8-carboxylic acid]
EC50 [1]: 1000 to 5000 nM
activation at 10 µM [2, 4]: 34%

CN1CCSc2c1cc(Cl)c(F)c2C(=O)O [Compound A-19, 6-chloro-7-fluoro-4-methyl-3,4-dihydro-2H-1,4-benzothiazine-8-carboxylic acid]
EC50 [1]: 1000 to 5000 nM
activation at 10 µM [2, 4]: 28%

CCCN1CCOc2c1cc(Cl)c(F)c2C(=O)O [Compound A-21, 6-Chloro-7-fluoro-4-propyl-3,4-dihydro-2H-1,4-benzoxazine-8-carboxylic acid]
EC50 [1]: 1000 to 5000 nM
activation at 25 µM [2, 5]: 29%

CCN1CCOc2c1cc(Cl)c(OC)c2C(=O)O [Compound A-28, 6-Chloro-4-ethyl-7-methoxy-3,4-dihydro-2H-1,4-benzoxazine-8-carboxylic acid]
EC50 [1]: 200 to 1000 nM
activation at 25 µM [2]: 36%

COc1c(Cl)cc2c(c1C(=O)O)SCCN2C [Compound A-29, 6-Chloro-7-methoxy-4-methyl-3,4-dihydro-2H-1,4-benzothiazine-8-carboxylic acid]
EC50 [1]: 200 to 1000 nM
activation at 10 µM [2, 4]: 43%

COc1c(F)cc2c(c1C(=O)O)OCCN2C [Compound A-30, 6-Fluoro-7-methoxy-4-methyl-3,4-dihydro-2H-1,4-benzoxazine-8-carboxylic acid]
EC50 [1]: 200 to 1000 nM
activation at 10 µM [2]: 39%

COc1c(Cl)cc2c(c1C(=O)O)OCCN2Cc1ccsc1 [Compound A-36, 6-Chloro-7-methoxy-4-[(thiophen-3-yl)methyl]-3,4-dihydro-2H-1,4-benzoxazine-8-carboxylic acid]
EC50 [1]: 1000 to 5000 nM
activation at 25 µM [2, 5]: 36%

O=C(O)c1c(F)c(Cl)cc2c1N(Cc1ccsc1)CCO2 [Compound A-54, 7-Chloro-6-fluoro-4-[(thiophen-3-yl)methyl]-3,4-dihydro-2H-1,4-benzoxazine-5-carboxylic acid]
EC50 [1]: 200 to 1000 nM
activation at 10 µM [2, 4]: 28%

COc1ccc(CN2CCOc3cc(Cl)c(F)c(C(=O)O)c32)cc1 [Compound A-58, 7-Chloro-6-fluoro-4-[(p-methoxyphenyl)methyl]-3,4-dihydro-2H-1,4-benzoxazine-5-carboxylic acid]
EC50 [1]: 200 to 1000 nM
activation at 10 µM [2, 4]: 35%

Cc1ccc(CN2CCOc3cc(Cl)c(F)c(C(=O)O)c32)cc1 [Compound A-60, 7-Chloro-6-fluoro-4-[(p-tolyl)methyl]-3,4-dihydro-2H-1,4-benzoxazine-5-carboxylic acid]
EC50 [1]: 200 to 1000 nM
activation at 10 µM [2, 4]: 17%
